Assay results as given in US7341857B2, “Production of beta-hydroxypalmitate methyl esterase from Ideonella sp.0-0013 (FERM BP-08660)” (Incorporated Administrative Agency National Agriculture and …, priority 2003, dated 2008).

What was measured:
[1] = test system: esterase derived from Ideonella sp. 0-0013 strain; test: Inhibition, activation and stabilization of the esterase; type: biochemical
Experimental: Methyl 3-hydroxypalmitate is detected by gas chromatography with a column of Stabilwax-DA, 30 m×0.53 mm×0.25 μm. The 3-hydroxypalmitic acid generated by hydrolysis of the ester can be detected by the same gas chromatography as described above. • (2) Optimal temperature for functioning: The optimal temperature of the enzyme of the present invention is 37° C. • (3) Optimal pH and stable pH range: pH 7 or more to pH 10 or less. • (4) Temperature stability: 97% of the enzyme is stable at 43° C., 54% of the enzyme is stable at 50° C., and 38% of the enzyme is stable at 60° C. • (5) Inhibition, activation, and stabilization: Activated by sodium ion and potassium ion, and inhibited by strontium ion, iron ion (divalent), and methyl palmitate. • (6) Molecular weight: About 46,500 Da (by SDS-PAGE), about 41,000 Da (by a gel filtration method). • (7) Isoelectric point: pI 4 (by polyacrylamide gel isoelectric focusing method).

[2] = test system: esterase derived from Ideonella sp. 0-0013 strain; test: Decomposing activities of methyl palmitate or methyl 3-hydroxypalmitate (Test Example 2, substrate selectivity); type: biochemical; settings: for Decomposition: 0.5 mg of substrate; for Activity ratio: methyl 3-hydroxypalmitate = 100.0
Experimental: The culture broth obtained by cultivating the strain in the same manner as that in Example 1 was centrifuged to obtain a supernatant and microbial cells. The supernatant or the microbial cells were suspended in 200 μL of 10 mM potassium phosphate buffer (pH 7.0) containing 0.5 mg of methyl 3-hydroxypalmitate, and the resultant was allowed to react at 43° C. for 12 hours.
After completion of the reaction, 500 μL of dichloromethane was added to the reaction mixture to extract 3-hydroxypalmitic acid. The extract was subjected to gas chromatography (Stabilwax-DA, 30 m×0.53 mm×0.25 μm) to measure the decomposing activity of methyl 3-hydroxypalmitate.
0.5 mg of methyl palmitate or methyl 3-hydroxypalmitate was reacted and analyzed in the same manner as that in Example 1 and the decomposing activities of the compounds were measured in each case.

Inhibition, activation, and stabilization (effect on the esterase) [1] | Decomposition [2] [%] | Activity ratio [2] | hydrolytic activity relative to that for methyl palmitate [2] | SMILES
Activated |  |  |  | [K+] [potassium ion]
Activated |  |  |  | [Na+] [sodium ion]
inhibited | 10.3 | 20.5 |  | CCCCCCCCCCCCCCCC(=O)OC [Methyl palmitate, methyl palmitate]
 | 50.3 | 100.0 | about 5 times | CCCCCCCCCCCCCC(O)CC(=O)OC (stereo not shown) [Methyl 3-hydroxypalmitate, methyl 3-hydroxypalmitate]
inhibited |  |  |  | [Sr+2] [strontium ion]
inhibited |  |  |  | [Fe+2] [iron ion (divalent)]
